Measured values as given in patent publication US20200078468A1, “NEUROTENSIN RECEPTOR BINDING CONJUGATES AND FORMULATIONS THEREOF” (priority 2016, published 2020).
Numbered stars: 1 amine (or outer) side, 2 acyl side, 3 side chain; on linkers, the order of the positions; unused ones are H or OH. Bridge positions count the residues as written; N and C are the ends. Square brackets hold non-standard residues; d marks the D form. Peptide text beside a SMILES is read from it. I, II: the chains in the order shown. * marks the point of attachment. X5 = CC(C)C[C@H](NC(=O)[C@H](Cc1ccccc1)NC(=O)CCCCCN1C(=O)CC(*)C1=O)B1O[C@@H]2[C@@H]3C[C@H](C[C@]2(C)O1)C3(C)C; SN38(20-O) = CCc1c2c(nc3ccc(O)cc13)-c1cc3c(c(=O)n1C2)COC(=O)[C@@]3(CC)O*; Hexanoyl(6-succinimido-3yl) = O=C1CC([*:1])C(=O)N1CCCCCC(=O)[*:2]; Pen = CC(C)(S)[C@H](N)C(=O)O; Tle = CC(C)(C)[C@H](N)C(=O)O

tested on: SW48 (human colon cancer cells); experiment: inhibition of SW48 cell proliferation (CellTiter Glo); format: cell-based; settings: NTSR1 targeted compound; 72 hrs; read-out: SW-48 proliferation IC50
Description: Conjugates were assessed in an in vitro assay evaluating inhibition of cell proliferation. SW48 (human colon cancer cells, ATCC®), cells were plated in 96 well, flat-bottomed plates (Costar) at a concentration of 5,000 cells/well. Cells were then incubated at 37° C. with 5% CO2 for 24 hrs. After 24 hrs, cells were treated with 0.01% DMSO or compound. Compounds were added at a starting dose of 10 μM and three fold serial dilutions were done for a total often points. Following compound addition, cells were incubated at 37° C. with 5% CO2 for 72 hrs. Proliferation was measured by CellTiter Glo reagent using the standard protocol (Promega) and a Glomax multi+detection system (Promega). Percent proliferation inhibition was calculated using the following formula: % inhibition=(control−treatment)/control*100. Control is defined as vehicle alone. IC50 curves were generated using the nonlinear regression analysis (four parameter) with GraphPad Prism 6.
Conjugates are assessed for receptor-dependent cytotoxicity by the difference between an NTSR1-targeting conjugate, and the corresponding conjugate with the same linker moiety and active agent where the NTSR1-targeting domain has been scrambled.

Going from CC(=O)N[C@H](C(=O)N1CCC[C@H]1C(=O)N[C@@H](CCCNC(=N)N)C(=O)N[C@@H](CCCNC(=N)N)C(=O)N1CCC[C@H]1C(=O)N[C@@H](Cc1ccc(O)cc1)C(=O)N[C@H](C(=O)N[C@@H](CC(C)C)C(=O)O)C(C)(C)C)C(C)(C)SC1CC(=O)N(CCCCCC(=O)N[C@@H](Cc2ccccc2)C(=O)N[C@@H](CC(C)C)B2O[C@@H]3[C@@H]4C[C@H](C[C@]3(C)O2)C4(C)C)C1=O (stereo partly drawn) [Compound 1] (Ac-[Pen](X5)PRRPY[Tle]L-OH) to CCc1c2c(nc3ccc(O)cc13)-c1cc3c(c(=O)n1C2)COC(=O)[C@@]3(CC)OC(=O)CNC(=O)CNC(=O)[C@H](CC(C)C)NC(=O)[C@H](Cc1ccccc1)NC(=O)CNC(=O)CCCCCN1C(=O)CC(SC(C)(C)[C@H](NC(C)=O)C(=O)N2CCC[C@H]2C(=O)N[C@@H](CCCNC(=N)N)C(=O)N[C@@H](CCCNC(=N)N)C(=O)N2CCC[C@H]2C(=O)N[C@@H](Cc2ccc(O)cc2)C(=O)N[C@H](C(=O)N[C@@H](CC(C)C)C(=O)O)C(C)(C)C)C1=O (stereo partly drawn) [Compound 65] (I: Ac-[Pen]PRRPY[Tle]L-OH / II: GFLGG-{SN38(20-O)}; linker I:1-II:N via Hexanoyl(6-succinimido-3yl)), the IC50 falls from over 10 µM to 0.8 µM. The second is the more potent here.

CO[C@H]1C(=O)[C@]2(C)[C@@H](OC)C[C@H]3OC[C@@]3(OC(C)=O)[C@H]2[C@H](OC(=O)c2ccccc2)[C@]2(O)C[C@H](OC(=O)[C@H](OC(=O)N(C)CCN(C)C(=O)OCc3ccc(NC(=O)[C@H](CCCNC(N)=O)NC(=O)[C@@H](NC(=O)CCCCCN4C(=O)CC(SC(C)(C)[C@H](NC(C)=O)C(=O)N5CCC[C@H]5C(=O)N[C@@H](CCCNC(=N)N)C(=O)N[C@@H](CCCNC(=N)N)C(=O)N5CCC[C@H]5C(=O)N[C@@H](Cc5ccc(O)cc5)C(=O)N[C@H](C(=O)N[C@@H](CC(C)C)C(=O)O)C(C)(C)C)C4=O)C(C)C)cc3)[C@@H](NC(=O)OC(C)(C)C)c3ccccc3)C(C)=C1C2(C)C (some centres unmarked) [Compound 5] and CO[C@H]1C(=O)[C@]2(C)[C@@H](OC)C[C@H]3OC[C@@]3(OC(C)=O)[C@H]2[C@H](OC(=O)c2ccccc2)[C@]2(O)C[C@H](OC(=O)[C@H](OC(=O)N(C)CCN(C)C(=O)OCc3ccc(NC(=O)[C@H](CCCNC(N)=O)NC(=O)[C@@H](NC(=O)CCCCCN4C(=O)CC(SC(C)(C)[C@H](NC(C)=O)C(=O)N5CCC[C@H]5C(=O)N[C@@H](CCCNC(=N)N)C(=O)N(C)[C@@H](CCCNC(=N)N)C(=O)N5CCC[C@H]5C(=O)N[C@@H](Cc5ccc(O)cc5)C(=O)N[C@H](C(=O)N[C@@H](CC(C)C)C(=O)O)C(C)(C)C)C4=O)C(C)C)cc3)[C@@H](NC(=O)OC(C)(C)C)c3ccccc3)C(C)=C1C2(C)C (some centres unmarked) [Compound 6] are within 1.5-fold of each other in IC50: 1.7 µM for the first, 2.24 µM for the second.

CO[C@H]1C(=O)[C@]2(C)[C@@H](OC)C[C@H]3OC[C@@]3(OC(C)=O)[C@H]2[C@H](OC(=O)c2ccccc2)[C@]2(O)C[C@H](OC(=O)[C@H](OC(=O)N(C)CCN(C)C(=O)OCc3ccc(NC(=O)[C@H](CCCNC(N)=O)NC(=O)[C@@H](NC(=O)CCCCCN4C(=O)CC(SC(C)(C)[C@H](NC(C)=O)C(=O)N5CCC[C@H]5C(=O)N[C@@H](CCCNC(=N)N)C(=O)N(C)[C@@H](CCCNC(=N)N)C(=O)N5CCC[C@H]5C(=O)N[C@H](Cc5ccc(O)cc5)C(=O)N[C@H](C(=O)N[C@@H](CC(C)C)C(=O)O)C(C)(C)C)C4=O)C(C)C)cc3)[C@@H](NC(=O)OC(C)(C)C)c3ccccc3)C(C)=C1C2(C)C (some centres unmarked) [Compound 7] and CO[C@H]1C(=O)[C@]2(C)[C@@H](OC)C[C@H]3OC[C@@]3(OC(C)=O)[C@H]2[C@H](OC(=O)c2ccccc2)[C@]2(O)C[C@H](OC(=O)[C@H](OC(=O)N(C)CCN(C)C(=O)OCc3ccc(NC(=O)[C@H](CCCNC(N)=O)NC(=O)[C@@H](NC(=O)CCCCCN4C(=O)CC(SC(C)(C)[C@H](NC(C)=O)C(=O)N5CCC[C@H]5C(=O)N[C@@H](CCCCN)C(=O)N(C)[C@@H](CCCNC(=N)N)C(=O)N5CCC[C@H]5C(=O)N[C@@H](Cc5ccc(O)cc5)C(=O)N[C@H](C(=O)N[C@@H](CC(C)C)C(=O)O)C(C)(C)C)C4=O)C(C)C)cc3)[C@@H](NC(=O)OC(C)(C)C)c3ccccc3)C(C)=C1C2(C)C (some centres unmarked) [Compound 8] are within 1.5-fold of each other in IC50: 2 µM for the first, 2.45 µM for the second.

Compared with CO[C@H]1C(=O)[C@]2(C)[C@@H](OC)C[C@H]3OC[C@@]3(OC(C)=O)[C@H]2[C@H](OC(=O)c2ccccc2)[C@]2(O)C[C@H](OC(=O)[C@H](OC(=O)N(C)CCCNC(=O)CNC(=O)[C@H](CC(C)C)NC(=O)[C@H](Cc3ccccc3)NC(=O)CNC(=O)CCCCCN3C(=O)CC(SCCC(=O)NCCCC[C@H](NC(C)=O)C(=O)N4CCC[C@H]4C(=O)N(C)[C@@H](CCCNC(=N)N)C(=O)N[C@@H](CCCNC(=N)N)C(=O)N4CCC[C@H]4C(=O)N[C@@H](Cc4ccc(O)cc4)C(=O)N[C@H](C(=O)N[C@@H](CC(C)C)C(=O)O)C(C)(C)C)C3=O)[C@@H](NC(=O)OC(C)(C)C)c3ccccc3)C(C)=C1C2(C)C (some centres unmarked) [Compound 9], COc1cc2cc(c1Cl)N(C)C(=O)C[C@H](OC(=O)[C@H](C)N(C)C(=O)CCSC1CC(=O)N(CCCNC(=O)CNC(=O)[C@H](CC(C)C)NC(=O)[C@H](Cc3ccccc3)NC(=O)CNC(=O)CCCCCN3C(=O)CC(SCCC(=O)NCCCC[C@H](NC(C)=O)C(=O)N4CCC[C@H]4C(=O)N(C)[C@@H](CCCNC(=N)N)C(=O)N[C@@H](CCCNC(=N)N)C(=O)N4CCC[C@H]4C(=O)N[C@@H](Cc4ccc(O)cc4)C(=O)N[C@H](C(=O)N[C@@H](CC(C)C)C(=O)O)C(C)(C)C)C3=O)C1=O)[C@]1(C)O[C@H]1[C@H](C)[C@@H]1C[C@@](O)(NC(=O)O1)[C@H](OC)/C=C/C=C(\C)C2 (some centres unmarked) [Compound 23] is lower in IC50: over 10 µM for the first, 0.0386 µM for the second.

COc1cc2cc(c1Cl)N(C)C(=O)C[C@H](OC(=O)[C@H](C)N(C)C(=O)CCSC1CC(=O)N(CCCNC(=O)CNC(=O)[C@H](CC(C)C)NC(=O)[C@H](Cc3ccccc3)NC(=O)CNC(=O)CCCCCN3C(=O)CC(SCCC(=O)NCCOCCOCCC(=O)NCCCC[C@H](NC(C)=O)C(=O)N4CCC[C@H]4C(=O)N(C)[C@@H](CCCNC(=N)N)C(=O)N[C@@H](CCCNC(=N)N)C(=O)N4CCC[C@H]4C(=O)N[C@@H](Cc4ccc(O)cc4)C(=O)N[C@H](C(=O)N[C@@H](CC(C)C)C(=O)O)C(C)(C)C)C3=O)C1=O)[C@]1(C)O[C@H]1[C@H](C)[C@@H]1C[C@@](O)(NC(=O)O1)[C@H](OC)/C=C/C=C(\C)C2 (some centres unmarked) [Compound 24] and COc1cc2cc(c1Cl)N(C)C(=O)C[C@H](OC(=O)[C@H](C)N(C)C(=O)CCSC1CC(=O)N(CCCNC(=O)CNC(=O)[C@H](CC(C)C)NC(=O)[C@H](Cc3ccccc3)NC(=O)CNC(=O)CCCCCN3C(=O)CC(SCCC(=O)NCCOCCOCCOCCOCCC(=O)NCCCC[C@H](NC(C)=O)C(=O)N4CCC[C@H]4C(=O)N(C)[C@@H](CCCNC(=N)N)C(=O)N[C@@H](CCCNC(=N)N)C(=O)N4CCC[C@H]4C(=O)N[C@@H](Cc4ccc(O)cc4)C(=O)N[C@H](C(=O)N[C@@H](CC(C)C)C(=O)O)C(C)(C)C)C3=O)C1=O)[C@]1(C)O[C@H]1[C@H](C)[C@@H]1C[C@@](O)(NC(=O)O1)[C@H](OC)/C=C/C=C(\C)C2 (some centres unmarked) [Compound 25] are within 1.5-fold of each other in IC50: 0.002 µM for the first, 0.0022 µM for the second.

First: COc1cc2cc(c1Cl)N(C)C(=O)C[C@H](OC(=O)[C@H](C)N(C)C(=O)CCSC1CC(=O)N(CCCNC(=O)CNC(=O)[C@H](CC(C)C)NC(=O)[C@H](Cc3ccccc3)NC(=O)CNC(=O)CCCCCN3C(=O)CC(SCCC(=O)NCCOCCOCCOCCOCCOCCOCCOCCOCCC(=O)NCCCC[C@H](NC(C)=O)C(=O)N4CCC[C@H]4C(=O)N(C)[C@@H](CCCNC(=N)N)C(=O)N[C@@H](CCCNC(=N)N)C(=O)N4CCC[C@H]4C(=O)N[C@@H](Cc4ccc(O)cc4)C(=O)N[C@H](C(=O)N[C@@H](CC(C)C)C(=O)O)C(C)(C)C)C3=O)C1=O)[C@]1(C)O[C@H]1[C@H](C)[C@@H]1C[C@@](O)(NC(=O)O1)[C@H](OC)/C=C/C=C(\C)C2 (some centres unmarked) [Compound 26]
Second: CC[C@H](C)[C@@H]([C@@H](CC(=O)N1CCC[C@H]1[C@H](OC)[C@@H](C)C(=O)N[C@H](C)[C@@H](O)c1ccccc1)OC)N(C)C(=O)[C@@H](NC(=O)[C@H](C(C)C)N(C)C(=O)OCc1ccc(NC(=O)[C@H](CCCNC(N)=O)NC(=O)[C@@H](NC(=O)CCCCCN2C(=O)CC(SCCC(=O)NCCOCCOCCOCCOCCOCCOCCOCCOCCC(=O)NCCCC[C@H](NC(C)=O)C(=O)N3CCC[C@H]3C(=O)N(C)[C@@H](CCCNC(=N)N)C(=O)N[C@@H](CCCNC(=N)N)C(=O)N3CCC[C@H]3C(=O)N[C@@H](Cc3ccc(O)cc3)C(=O)N[C@H](C(=O)N[C@@H](CC(C)C)C(=O)O)C(C)(C)C)C2=O)C(C)C)cc1)C(C)C (some centres unmarked) [Compound 62]
The IC50 of the first is 10-fold lower: 0.005 µM for the first, 0.0501 µM for the second.

CC[C@H](C)[C@@H]([C@@H](CC(=O)N1CCC[C@H]1[C@H](OC)[C@@H](C)C(=O)N[C@H](C)[C@@H](O)c1ccccc1)OC)N(C)C(=O)[C@@H](NC(=O)[C@H](C(C)C)N(C)C(=O)OCc1ccc(NC(=O)[C@H](CCCNC(N)=O)NC(=O)[C@@H](NC(=O)CCCCCN2C(=O)CC(SCCC(=O)NCCOCCOCCC(=O)NCCCC[C@H](NC(C)=O)C(=O)N3CCC[C@H]3C(=O)N(C)[C@@H](CCCNC(=N)N)C(=O)N[C@@H](CCCNC(=N)N)C(=O)N3CCC[C@H]3C(=O)N[C@@H](Cc3ccc(O)cc3)C(=O)N[C@H](C(=O)N[C@@H](CC(C)C)C(=O)O)C(C)(C)C)C2=O)C(C)C)cc1)C(C)C (some centres unmarked) [Compound 60] and CC[C@H](C)[C@@H]([C@@H](CC(=O)N1CCC[C@H]1[C@H](OC)[C@@H](C)C(=O)N[C@H](C)[C@@H](O)c1ccccc1)OC)N(C)C(=O)[C@@H](NC(=O)[C@H](C(C)C)N(C)C(=O)OCc1ccc(NC(=O)[C@H](CCCNC(N)=O)NC(=O)[C@@H](NC(=O)CCCCCN2C(=O)CC(SCCC(=O)NCCOCCOCCOCCOCCC(=O)NCCCC[C@H](NC(C)=O)C(=O)N3CCC[C@H]3C(=O)N(C)[C@@H](CCCNC(=N)N)C(=O)N[C@@H](CCCNC(=N)N)C(=O)N3CCC[C@H]3C(=O)N[C@@H](Cc3ccc(O)cc3)C(=O)N[C@H](C(=O)N[C@@H](CC(C)C)C(=O)O)C(C)(C)C)C2=O)C(C)C)cc1)C(C)C (some centres unmarked) [Compound 61] are within 1.5-fold of each other in IC50: 0.0446 µM for the first, 0.0337 µM for the second.
